Measurements as given in ChEMBL document CHEMBL1201862, “PubChem BioAssay data set” (2004).
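Assay format: 96-well plates, 48-hour exposure. GI50 is the concentration that inhibits growth by half.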 The source made the active and inactive calls. Cut-off read from the data, not from the text of the source: active = GI50 up to about 1.1 µM and inactive = higher.

How the values were obtained:
Test in all cases: NCI-60 cell line screen, 48 h
[1] = system: HOP-62
[2] = system: SN12C
[3] = system: ACHN
[4] = system: KM12
[5] = system: NCI-H23
[6] = system: NCI-H522
[7] = system: RXF 393
[8] = system: NCI/ADR-RES
[9] = system: U-251
[10] = system: HCT-116
[11] = system: UACC-62
[12] = system: HOP-92
[13] = system: UACC-257
[14] = system: MOLT-4
[15] = system: SK-MEL-5
[16] = system: LOX IMVI
[17] = system: PC-3
[18] = system: Malme-3M
[19] = system: MDA-N

| SMILES | GI50 [1] | GI50 [2] | GI50 [3] | GI50 [4] | GI50 [5] | GI50 [6] | GI50 [7] | GI50 [8] | GI50 [9] | GI50 [10] | GI50 [11] | GI50 [12] | GI50 [13] | GI50 [14] | GI50 [15] | GI50 [16] | GI50 [17] | GI50 [18] | GI50 [19] |
| --- | --- | --- | --- | --- | --- | --- | --- | --- | --- | --- | --- | --- | --- | --- | --- | --- | --- | --- | --- |
| COc1ccc(C2C(C=O)C(N3CCN(C)CC3)=Nc3nc4ccccc4n32)cc1 (stereo not given) | 12.2 µM (inactive) | 17.9 µM (inactive) | 18.2 µM (inactive) | 16.3 µM (inactive) | 20.5 µM (inactive) | 13 µM (inactive) | 13.6 µM (inactive) | 17.4 µM (inactive) | 17.7 µM (inactive) | 14.6 µM (inactive) | 14.1 µM (inactive) | 4.83 µM (inactive) | 16.6 µM (inactive) | < 0.01 µM (active) | 15.9 µM (inactive) | 17.3 µM (inactive) | 16.3 µM (inactive) | 10.8 µM (inactive) |  |
| O=C1C(c2ccccc2)=C(c2ccccc2)C(c2ccc(-c3ccc(C4=C(c5ccccc5)C(=O)C(c5ccccc5)=C4c4ccccc4)cc3)cc2)=C1c1ccccc1 | > 100 µM (inactive) | > 100 µM (inactive) |  | > 100 µM (inactive) | > 100 µM (inactive) | > 100 µM (inactive) | > 100 µM (inactive) |  | > 100 µM (inactive) | > 100 µM (inactive) | > 100 µM (inactive) | > 100 µM (inactive) | > 100 µM (inactive) | 77.8 µM (inactive) | > 100 µM (inactive) | > 100 µM (inactive) |  | > 100 µM (inactive) |  |
| O=S1(=O)OCCCOS(=O)(=O)C1Br | > 100 µM (inactive) | > 100 µM (inactive) | > 100 µM (inactive) | > 100 µM (inactive) | > 100 µM (inactive) | > 100 µM (inactive) | > 100 µM (inactive) | > 100 µM (inactive) | > 100 µM (inactive) | > 100 µM (inactive) | > 100 µM (inactive) |  | > 100 µM (inactive) | > 100 µM (inactive) | > 100 µM (inactive) | > 100 µM (inactive) | > 100 µM (inactive) | > 100 µM (inactive) | > 100 µM (inactive) |
| O=C(/C=C(\Nc1ccccc1O)c1ccccc1)C(=O)NC12CC3CC(CC(C3)C1)C2 | > 10 µM (inactive) | > 10 µM (inactive) | > 10 µM (inactive) | 6.95 µM (inactive) | > 10 µM (inactive) | > 10 µM (inactive) | > 10 µM (inactive) | > 10 µM (inactive) | > 10 µM (inactive) |  |  |  | > 10 µM (inactive) | 5.66 µM (inactive) | 7.03 µM (inactive) | 9.14 µM (inactive) | 5.65 µM (inactive) | > 10 µM (inactive) | > 10 µM (inactive) |
| CCOC(=O)c1nc2ccc(C(F)(F)F)cc2nc1Oc1ccc(F)cc1 | > 100 µM (inactive) |  | > 100 µM (inactive) | > 100 µM (inactive) | > 100 µM (inactive) |  | > 100 µM (inactive) | > 100 µM (inactive) | > 100 µM (inactive) | > 100 µM (inactive) | > 100 µM (inactive) | > 100 µM (inactive) | > 100 µM (inactive) | > 100 µM (inactive) | > 100 µM (inactive) | > 100 µM (inactive) | > 100 µM (inactive) |  |  |
| COC(=O)c1c(O)ccc2c1c1c(n2Cc2cc(OC)cc(OC)c2)C(=O)c2ccccc2C1 | > 100 µM (inactive) | 29.5 µM (inactive) |  | 43.3 µM (inactive) | 58.1 µM (inactive) |  | 19.7 µM (inactive) | 16.7 µM (inactive) | 47.8 µM (inactive) | 8.28 µM (inactive) | 49.2 µM (inactive) |  | 67 µM (inactive) | 58.1 µM (inactive) | 34.3 µM (inactive) | 33.1 µM (inactive) | 16.9 µM (inactive) | 68.5 µM (inactive) | 10.8 µM (inactive) |
| SCCSCCCSCCS | > 100 µM (inactive) | > 100 µM (inactive) |  | > 100 µM (inactive) | > 100 µM (inactive) | 19.3 µM (inactive) |  | > 100 µM (inactive) | > 100 µM (inactive) | > 100 µM (inactive) | > 100 µM (inactive) |  | 59.3 µM (inactive) | 4.97 µM (inactive) | > 100 µM (inactive) | 47.5 µM (inactive) | 20 µM (inactive) |  | > 100 µM (inactive) |
| O=C1NN=C(O)C2C3c4ccccc4C(c4ccccc43)C12 (stereo not given) | > 100 µM (inactive) | > 100 µM (inactive) | > 100 µM (inactive) | > 100 µM (inactive) | > 100 µM (inactive) |  | > 100 µM (inactive) | > 100 µM (inactive) | > 100 µM (inactive) | > 100 µM (inactive) | > 100 µM (inactive) |  | > 100 µM (inactive) | > 100 µM (inactive) | > 100 µM (inactive) | > 100 µM (inactive) | > 100 µM (inactive) | > 100 µM (inactive) | > 100 µM (inactive) |
| Oc1ccc(N=C2CCC(=C(c3ccccc3)c3ccc(Nc4ccc(O)cc4)cc3)CC2)cc1 |  | 54.6 µM (inactive) | 67.1 µM (inactive) | 32.4 µM (inactive) | 62.7 µM (inactive) | 47 µM (inactive) | 58.6 µM (inactive) | 80.9 µM (inactive) | 47.3 µM (inactive) | 39.4 µM (inactive) | 55.8 µM (inactive) | > 100 µM (inactive) | > 100 µM (inactive) | 83.6 µM (inactive) | > 100 µM (inactive) | 73.3 µM (inactive) | 96.2 µM (inactive) |  |  |
| COC(=O)C(Cc1ccc(OC)cc1O)NC(=O)OC(C)(C)C (stereo not given) | > 100 µM (inactive) | > 100 µM (inactive) | > 100 µM (inactive) | > 100 µM (inactive) | 86.3 µM (inactive) | 96.6 µM (inactive) | > 100 µM (inactive) | > 100 µM (inactive) | > 100 µM (inactive) | > 100 µM (inactive) | > 100 µM (inactive) |  | 22.1 µM (inactive) | > 100 µM (inactive) | 61.7 µM (inactive) | > 100 µM (inactive) | > 100 µM (inactive) | 78.5 µM (inactive) | > 100 µM (inactive) |
| O=c1[nH]c(=O)n(C2CC(O)C(CO)O2)cc1C#Cc1ccc(C(F)(F)F)cc1 (stereo not given) | > 100 µM (inactive) | > 100 µM (inactive) | > 100 µM (inactive) | > 100 µM (inactive) | > 100 µM (inactive) | > 100 µM (inactive) | > 100 µM (inactive) |  | > 100 µM (inactive) | > 100 µM (inactive) | > 100 µM (inactive) | 23.9 µM (inactive) | > 100 µM (inactive) | > 100 µM (inactive) | > 100 µM (inactive) | > 100 µM (inactive) |  | > 100 µM (inactive) |  |
| Cc1nc(-c2cc3c(ccc4ccccc43)oc2=O)cc2c1c(=O)oc1ccc3ccccc3c12 | > 100 µM (inactive) |  | > 100 µM (inactive) | > 100 µM (inactive) | > 100 µM (inactive) | > 100 µM (inactive) | > 100 µM (inactive) | > 100 µM (inactive) | > 100 µM (inactive) | > 100 µM (inactive) | > 100 µM (inactive) | > 100 µM (inactive) | > 100 µM (inactive) | > 100 µM (inactive) | > 100 µM (inactive) | > 100 µM (inactive) | > 100 µM (inactive) | > 100 µM (inactive) |  |
| Cc1n[nH]c(=O)n1/N=C/c1cccc(Cl)c1 | 49.3 µM (inactive) | > 100 µM (inactive) | > 100 µM (inactive) | > 100 µM (inactive) | > 100 µM (inactive) |  | 20.2 µM (inactive) | > 100 µM (inactive) | 65.5 µM (inactive) | > 100 µM (inactive) | > 100 µM (inactive) |  | > 100 µM (inactive) | 49.3 µM (inactive) |  |  | > 100 µM (inactive) | > 100 µM (inactive) | > 100 µM (inactive) |
| CSc1c(C(=O)Nc2ccc(C)cc2)c(N)nn1-c1ccccc1 | 57.7 µM (inactive) | > 100 µM (inactive) | 43.8 µM (inactive) |  | > 100 µM (inactive) | 71.4 µM (inactive) | 26.4 µM (inactive) |  | 28.3 µM (inactive) | 49.4 µM (inactive) | 95.9 µM (inactive) | 23.6 µM (inactive) | 54 µM (inactive) | > 100 µM (inactive) | > 100 µM (inactive) | > 100 µM (inactive) | 39.5 µM (inactive) | 19.9 µM (inactive) | > 100 µM (inactive) |
| Cc1ccc(-c2c(C#N)c(O)n(NS(=O)(=O)c3ccccc3)c(=O)c2C#N)cc1 | > 100 µM (inactive) | > 100 µM (inactive) | > 100 µM (inactive) | > 100 µM (inactive) |  | > 100 µM (inactive) | > 100 µM (inactive) | > 100 µM (inactive) | > 100 µM (inactive) | > 100 µM (inactive) | > 100 µM (inactive) | > 100 µM (inactive) | > 100 µM (inactive) | > 100 µM (inactive) | 68.5 µM (inactive) | > 100 µM (inactive) | > 100 µM (inactive) | > 100 µM (inactive) |  |
| O=C(N/N=C/c1cc(Cl)cc(Cl)c1O)c1ccncc1 | 53.2 µM (inactive) | > 100 µM (inactive) | 68.9 µM (inactive) | > 100 µM (inactive) | 78.9 µM (inactive) | > 100 µM (inactive) | > 100 µM (inactive) |  | 92.3 µM (inactive) | > 100 µM (inactive) | 63 µM (inactive) |  | > 100 µM (inactive) | 36.9 µM (inactive) | 81.3 µM (inactive) | > 100 µM (inactive) |  | > 100 µM (inactive) |  |
| COc1ccc(/C=C/c2cc(OC)c(O[Si](C)(C)C(C)(C)C)c(OC)c2)cc1 | > 100 µM (inactive) | > 100 µM (inactive) | > 100 µM (inactive) | > 100 µM (inactive) | 17.2 µM (inactive) | > 100 µM (inactive) |  |  | 98.6 µM (inactive) | 55.6 µM (inactive) | 75.2 µM (inactive) | 29.9 µM (inactive) | 28.4 µM (inactive) | 63.4 µM (inactive) | 54.1 µM (inactive) |  |  | 24.2 µM (inactive) |  |
